Test results from the NIST ThermoML archive (doi:10.1016/j.jct.2014.06.011).
± gives the expanded uncertainty stated by the source.

Columns and labels:
[1] = Crystal; DTA
[2] = Molar enthalpy of transition or fusion; details: Crystal; DSC

Normal melting temperature [1] [°C]	Molar enthalpy of transition or fusion [2] [kcal/mol]	SMILES
7.2 ± 0.7	6.88 ± 0.741	CCCCCCCCCCO [decan-1-ol]
32.2 ± 0.7	6.69 ± 0.741	CCCCCCCCCC(=O)O [decanoic acid]
-14.4 ± 0.7	5.66 ± 0.717	CCCCCCCCO [octan-1-ol]
16.6 ± 0.7	5.11 ± 0.717	CCCCCCCC(=O)O [octanoic acid]
